# In patent US8415469B2, “Compounds and methods for kinase modulation, and indications therefor” (Plexxikon Inc., priority 2005, dated 2013):
# Key:
# Type in all cases: biochemical
# Ret = target: T1, Ret (Homo sapiens, UniProt P07949); test: AlphaScreen kinase assay, Ret; settings: read-out: IC50, activity toward kinase Ret
# T1 construct: P1378.pET-SF BI-PTP RET H661-R1012 HIS; made in house
# T1 sequence (P07949 with tags, fused parts or gaps): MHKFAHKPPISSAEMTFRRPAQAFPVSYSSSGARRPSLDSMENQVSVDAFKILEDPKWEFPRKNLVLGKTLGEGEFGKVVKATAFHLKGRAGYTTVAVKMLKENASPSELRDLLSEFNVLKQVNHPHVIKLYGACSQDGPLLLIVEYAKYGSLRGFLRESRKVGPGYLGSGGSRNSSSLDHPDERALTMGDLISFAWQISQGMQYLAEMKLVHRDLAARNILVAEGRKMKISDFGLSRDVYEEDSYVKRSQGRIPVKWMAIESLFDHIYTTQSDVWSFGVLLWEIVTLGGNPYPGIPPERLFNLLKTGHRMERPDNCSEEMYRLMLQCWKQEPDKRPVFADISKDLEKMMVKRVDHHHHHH
# Gsk3β = Gsk3β (Homo sapiens, UniProt P49841); test: AlphaScreen kinase assay, Gsk3β; settings: read-out: IC50, activity toward kinase Gsk3β
# How it was run: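 AlphaScreen read-out: acceptor-bead emission falls when kinase is inhibited. Biotin-peptide substrate captured on streptavidin donor beads, phospho-specific antibody on acceptor beads. 8 concentrations, 1:3 dilution series, from 20 mM DMSO stocks.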
# Kdr = target: T2, Kdr (Homo sapiens, UniProt P35968); test: Z'-Lyte FRET kinase assay (Invitrogen), Kdr; settings: read-out: IC50, activity toward kinase Kdr
# T2 construct: purchased Invitrogen (assay run by Invitrogen)
# T2 sequence (P35968 20-1356): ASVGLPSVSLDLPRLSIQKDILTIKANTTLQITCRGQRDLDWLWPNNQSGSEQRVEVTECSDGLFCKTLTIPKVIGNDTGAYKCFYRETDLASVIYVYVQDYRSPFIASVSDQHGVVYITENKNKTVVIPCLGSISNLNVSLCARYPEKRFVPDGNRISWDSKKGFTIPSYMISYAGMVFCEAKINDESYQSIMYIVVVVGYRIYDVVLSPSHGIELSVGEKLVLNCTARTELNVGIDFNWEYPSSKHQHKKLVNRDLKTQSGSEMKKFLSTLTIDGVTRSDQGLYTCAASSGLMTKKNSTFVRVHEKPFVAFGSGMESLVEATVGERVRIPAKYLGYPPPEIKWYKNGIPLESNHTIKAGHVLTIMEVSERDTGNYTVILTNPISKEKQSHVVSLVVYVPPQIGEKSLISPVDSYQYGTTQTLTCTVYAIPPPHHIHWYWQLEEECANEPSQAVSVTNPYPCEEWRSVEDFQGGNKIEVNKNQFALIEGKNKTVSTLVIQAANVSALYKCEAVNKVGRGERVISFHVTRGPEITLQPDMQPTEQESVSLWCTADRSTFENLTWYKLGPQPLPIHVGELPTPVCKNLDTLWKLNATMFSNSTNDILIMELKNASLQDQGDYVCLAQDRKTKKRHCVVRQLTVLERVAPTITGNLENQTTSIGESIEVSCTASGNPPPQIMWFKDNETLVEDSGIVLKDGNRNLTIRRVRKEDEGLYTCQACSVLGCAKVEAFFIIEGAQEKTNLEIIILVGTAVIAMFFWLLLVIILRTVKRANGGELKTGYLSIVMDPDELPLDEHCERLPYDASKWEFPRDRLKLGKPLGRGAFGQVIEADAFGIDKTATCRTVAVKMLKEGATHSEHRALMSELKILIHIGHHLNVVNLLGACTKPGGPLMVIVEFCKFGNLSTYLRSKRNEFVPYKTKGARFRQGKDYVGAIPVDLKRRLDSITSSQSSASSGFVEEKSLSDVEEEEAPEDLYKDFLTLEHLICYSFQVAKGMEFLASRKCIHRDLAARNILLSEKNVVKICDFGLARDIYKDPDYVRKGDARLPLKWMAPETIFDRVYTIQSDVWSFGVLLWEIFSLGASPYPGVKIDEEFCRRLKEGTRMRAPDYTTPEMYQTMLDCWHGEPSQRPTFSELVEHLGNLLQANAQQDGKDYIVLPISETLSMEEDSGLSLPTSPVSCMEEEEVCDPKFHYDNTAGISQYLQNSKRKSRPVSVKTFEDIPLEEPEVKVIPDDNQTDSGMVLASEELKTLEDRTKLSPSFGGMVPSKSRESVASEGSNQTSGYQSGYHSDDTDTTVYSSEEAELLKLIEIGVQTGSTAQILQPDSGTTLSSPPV
# Btk = target: T3, Btk (Homo sapiens, UniProt Q06187); test: Z'-Lyte FRET kinase assay (Invitrogen), Btk; settings: read-out: IC50, activity toward kinase Btk
# T3 construct: purchased Invitrogen (assay run by Invitrogen)
# IKK beta = target: T4, IKK beta (Homo sapiens, UniProt O14920); test: AlphaScreen kinase assay, IKK beta; settings: read-out: IC50, activity toward kinase IKK beta
# T4 sequence (O14920 1-756): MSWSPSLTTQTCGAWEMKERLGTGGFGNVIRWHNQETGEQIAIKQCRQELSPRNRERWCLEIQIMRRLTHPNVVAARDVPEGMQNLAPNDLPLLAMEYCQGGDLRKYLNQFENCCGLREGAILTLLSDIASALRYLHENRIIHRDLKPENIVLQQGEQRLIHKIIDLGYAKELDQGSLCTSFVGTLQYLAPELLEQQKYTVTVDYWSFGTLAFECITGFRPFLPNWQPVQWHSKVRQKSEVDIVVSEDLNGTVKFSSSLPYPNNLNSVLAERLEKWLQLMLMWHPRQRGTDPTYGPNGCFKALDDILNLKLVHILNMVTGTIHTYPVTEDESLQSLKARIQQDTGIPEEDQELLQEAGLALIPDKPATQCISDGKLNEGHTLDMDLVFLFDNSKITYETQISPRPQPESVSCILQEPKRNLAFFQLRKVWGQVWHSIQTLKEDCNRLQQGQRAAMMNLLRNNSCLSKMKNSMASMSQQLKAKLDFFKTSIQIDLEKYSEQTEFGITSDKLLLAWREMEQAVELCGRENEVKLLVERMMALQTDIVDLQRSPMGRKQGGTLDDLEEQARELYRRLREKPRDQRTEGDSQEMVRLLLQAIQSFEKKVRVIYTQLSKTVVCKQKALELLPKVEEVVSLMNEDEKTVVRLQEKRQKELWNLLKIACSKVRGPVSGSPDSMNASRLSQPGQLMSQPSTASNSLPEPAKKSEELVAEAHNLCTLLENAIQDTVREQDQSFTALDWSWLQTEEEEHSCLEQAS
# B-Raf V600E = target: T5, B-Raf V600E (Homo sapiens, UniProt P15056, V600E); test: AlphaScreen kinase assay, B-Raf V600E; settings: read-out: IC50, activity toward kinase B-Raf V600E
# T5 construct: P4254. pFastBacBD-CDC37 BRAF D437-K722-X, V600E; His6 with pFastBac HT leader (TEV site) (N); made in house; host or cells: Sf9 (baculovirus; chaperone CDC37 co-expressed)
# T5 sequence (P15056 with tags, fused parts or gaps V600E): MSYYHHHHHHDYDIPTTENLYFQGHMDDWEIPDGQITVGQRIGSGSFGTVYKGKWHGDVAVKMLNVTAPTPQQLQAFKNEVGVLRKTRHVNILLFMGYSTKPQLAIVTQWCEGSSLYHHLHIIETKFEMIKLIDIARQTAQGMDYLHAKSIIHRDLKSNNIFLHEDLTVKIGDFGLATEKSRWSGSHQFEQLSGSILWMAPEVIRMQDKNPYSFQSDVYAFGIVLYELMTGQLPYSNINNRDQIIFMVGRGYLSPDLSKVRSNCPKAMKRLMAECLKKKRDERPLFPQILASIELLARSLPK
# Plk1 = Plk1 (Homo sapiens, UniProt P53350); test: AlphaScreen kinase assay, Plk1; settings: read-out: IC50, activity toward kinase Plk1
# Chain of Plk1 (P53350 whole entry): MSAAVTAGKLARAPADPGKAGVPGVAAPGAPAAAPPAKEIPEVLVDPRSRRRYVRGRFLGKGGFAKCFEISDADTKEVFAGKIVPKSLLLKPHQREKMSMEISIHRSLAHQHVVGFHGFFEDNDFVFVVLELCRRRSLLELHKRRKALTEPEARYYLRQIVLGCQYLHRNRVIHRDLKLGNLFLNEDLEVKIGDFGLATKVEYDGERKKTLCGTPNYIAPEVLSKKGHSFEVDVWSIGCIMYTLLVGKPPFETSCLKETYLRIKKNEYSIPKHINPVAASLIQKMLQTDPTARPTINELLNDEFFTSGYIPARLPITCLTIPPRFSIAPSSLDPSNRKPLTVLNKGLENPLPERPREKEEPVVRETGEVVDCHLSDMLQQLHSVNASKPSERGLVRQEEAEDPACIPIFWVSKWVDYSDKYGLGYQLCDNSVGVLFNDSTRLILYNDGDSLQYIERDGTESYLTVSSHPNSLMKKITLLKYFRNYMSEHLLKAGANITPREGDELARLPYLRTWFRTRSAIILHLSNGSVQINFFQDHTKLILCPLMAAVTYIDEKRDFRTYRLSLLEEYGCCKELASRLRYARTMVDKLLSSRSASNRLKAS
# Description: (§1) AlphaScreen assay was used to screen additional kinases. The assay is similarly dependent on the phosphorylation of a peptide substrate. In this assay, an antibody that recognizes phosphorylated substrate is bound to an acceptor bead. The peptide substrate is attached to biotin, which binds to a donor head that contains streptavidin. Thus phosphorylated substrate is bound by antibody and streptavidin, bringing the donor and acceptor heads into close proximity when kinase is not inhibited. The donor produces singlet oxygen which results in emission from the acceptor when they are in close proximity. Conversely, when kinase is inhibited, the donor and acceptor beads are not associated and the emission from the acceptor is reduced.
# (§2) AlphaScreen assays were done using compounds dissolved in DMSO to a concentration of 20 mM. The compounds were diluted accordingly to the desired final concentrations in each sample well, using 1:3 serial dilution for a total of 8 concentration points.
# Stk6 = target: T6, Stk6 (Homo sapiens, UniProt O14965); test: Z'-Lyte FRET kinase assay (Invitrogen), Stk6; settings: read-out: IC50, activity toward kinase Stk6
# T6 construct: purchased Invitrogen (Carlsbad, Calif.), screening service
# T6 sequence (O14965 1-403): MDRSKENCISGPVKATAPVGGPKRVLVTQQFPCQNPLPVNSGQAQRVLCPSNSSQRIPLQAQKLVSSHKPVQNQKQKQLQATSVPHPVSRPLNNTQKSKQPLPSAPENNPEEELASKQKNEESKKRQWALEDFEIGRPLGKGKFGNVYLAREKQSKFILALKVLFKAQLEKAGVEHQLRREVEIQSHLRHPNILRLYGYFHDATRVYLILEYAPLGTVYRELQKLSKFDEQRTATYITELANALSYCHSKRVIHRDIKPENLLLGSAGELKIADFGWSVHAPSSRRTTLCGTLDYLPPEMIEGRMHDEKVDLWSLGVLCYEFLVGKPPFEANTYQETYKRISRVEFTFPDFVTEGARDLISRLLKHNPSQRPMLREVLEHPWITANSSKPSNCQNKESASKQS
# IGF1R = IGF1R (Homo sapiens, UniProt P08069); test: AlphaScreen kinase assay, IGF1R; settings: read-out: IC50, activity toward kinase IGF1R
# Chain of IGF1R (P08069 31-1367): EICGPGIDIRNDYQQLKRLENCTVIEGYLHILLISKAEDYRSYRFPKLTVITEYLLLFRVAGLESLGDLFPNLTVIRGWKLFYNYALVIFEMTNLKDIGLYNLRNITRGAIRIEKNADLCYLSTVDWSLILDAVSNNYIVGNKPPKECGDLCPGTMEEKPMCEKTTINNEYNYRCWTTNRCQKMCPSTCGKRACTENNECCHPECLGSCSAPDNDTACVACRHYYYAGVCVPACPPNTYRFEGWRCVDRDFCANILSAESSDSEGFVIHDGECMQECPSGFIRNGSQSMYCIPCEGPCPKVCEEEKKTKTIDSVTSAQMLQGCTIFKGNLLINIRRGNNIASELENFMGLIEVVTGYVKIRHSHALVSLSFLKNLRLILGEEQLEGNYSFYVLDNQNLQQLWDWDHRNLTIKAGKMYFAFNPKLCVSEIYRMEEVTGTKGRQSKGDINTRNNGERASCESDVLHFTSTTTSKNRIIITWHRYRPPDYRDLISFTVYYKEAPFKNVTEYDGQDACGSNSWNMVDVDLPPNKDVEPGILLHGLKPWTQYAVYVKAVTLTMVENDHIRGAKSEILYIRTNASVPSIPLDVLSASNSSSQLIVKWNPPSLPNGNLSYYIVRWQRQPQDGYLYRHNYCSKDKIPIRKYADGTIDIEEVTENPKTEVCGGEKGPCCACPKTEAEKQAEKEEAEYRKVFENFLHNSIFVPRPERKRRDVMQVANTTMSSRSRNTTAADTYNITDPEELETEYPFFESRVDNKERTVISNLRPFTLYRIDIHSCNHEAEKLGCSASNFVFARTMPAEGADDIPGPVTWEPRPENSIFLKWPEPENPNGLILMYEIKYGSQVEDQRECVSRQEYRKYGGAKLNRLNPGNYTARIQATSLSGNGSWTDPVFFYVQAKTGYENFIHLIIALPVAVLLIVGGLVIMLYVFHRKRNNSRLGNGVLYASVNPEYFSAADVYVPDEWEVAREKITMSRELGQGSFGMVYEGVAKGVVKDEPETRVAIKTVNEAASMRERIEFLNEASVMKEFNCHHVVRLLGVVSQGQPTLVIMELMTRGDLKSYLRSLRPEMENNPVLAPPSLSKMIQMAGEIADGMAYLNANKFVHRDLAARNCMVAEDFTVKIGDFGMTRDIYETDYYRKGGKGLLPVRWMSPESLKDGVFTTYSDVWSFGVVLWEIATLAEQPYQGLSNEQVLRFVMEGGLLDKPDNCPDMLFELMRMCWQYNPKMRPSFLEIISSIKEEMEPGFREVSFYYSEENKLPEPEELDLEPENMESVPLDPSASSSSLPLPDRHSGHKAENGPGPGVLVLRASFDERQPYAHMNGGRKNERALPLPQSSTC
# Kit = target: T7, Kit (Homo sapiens, UniProt P10721); test: AlphaScreen kinase assay, Kit; settings: read-out: IC50, activity toward kinase Kit
# T7 construct: P1332.N6 BI PTP KIT M552-K948-X COD; His6 (N); made in house; host or cells: E. coli (PTP1B co-expressed)
# T7 sequence (P10721 with tags, fused parts or gaps): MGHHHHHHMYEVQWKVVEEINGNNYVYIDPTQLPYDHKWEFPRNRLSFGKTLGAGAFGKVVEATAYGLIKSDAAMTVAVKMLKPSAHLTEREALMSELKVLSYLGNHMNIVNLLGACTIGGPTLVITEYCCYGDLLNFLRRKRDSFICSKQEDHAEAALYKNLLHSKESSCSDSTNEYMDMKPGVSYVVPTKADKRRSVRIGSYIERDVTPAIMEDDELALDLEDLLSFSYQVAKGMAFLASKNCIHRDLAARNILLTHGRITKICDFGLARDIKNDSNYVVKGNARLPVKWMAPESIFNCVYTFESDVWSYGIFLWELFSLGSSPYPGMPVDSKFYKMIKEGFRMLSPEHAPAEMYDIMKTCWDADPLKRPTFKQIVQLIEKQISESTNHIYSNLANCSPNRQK
# Jak3 = target: T8, Jak3 (Homo sapiens, UniProt P52333); test: AlphaScreen kinase assay, Jak3; settings: read-out: IC50, activity toward kinase Jak3
# T8 sequence (P52333 1-1124): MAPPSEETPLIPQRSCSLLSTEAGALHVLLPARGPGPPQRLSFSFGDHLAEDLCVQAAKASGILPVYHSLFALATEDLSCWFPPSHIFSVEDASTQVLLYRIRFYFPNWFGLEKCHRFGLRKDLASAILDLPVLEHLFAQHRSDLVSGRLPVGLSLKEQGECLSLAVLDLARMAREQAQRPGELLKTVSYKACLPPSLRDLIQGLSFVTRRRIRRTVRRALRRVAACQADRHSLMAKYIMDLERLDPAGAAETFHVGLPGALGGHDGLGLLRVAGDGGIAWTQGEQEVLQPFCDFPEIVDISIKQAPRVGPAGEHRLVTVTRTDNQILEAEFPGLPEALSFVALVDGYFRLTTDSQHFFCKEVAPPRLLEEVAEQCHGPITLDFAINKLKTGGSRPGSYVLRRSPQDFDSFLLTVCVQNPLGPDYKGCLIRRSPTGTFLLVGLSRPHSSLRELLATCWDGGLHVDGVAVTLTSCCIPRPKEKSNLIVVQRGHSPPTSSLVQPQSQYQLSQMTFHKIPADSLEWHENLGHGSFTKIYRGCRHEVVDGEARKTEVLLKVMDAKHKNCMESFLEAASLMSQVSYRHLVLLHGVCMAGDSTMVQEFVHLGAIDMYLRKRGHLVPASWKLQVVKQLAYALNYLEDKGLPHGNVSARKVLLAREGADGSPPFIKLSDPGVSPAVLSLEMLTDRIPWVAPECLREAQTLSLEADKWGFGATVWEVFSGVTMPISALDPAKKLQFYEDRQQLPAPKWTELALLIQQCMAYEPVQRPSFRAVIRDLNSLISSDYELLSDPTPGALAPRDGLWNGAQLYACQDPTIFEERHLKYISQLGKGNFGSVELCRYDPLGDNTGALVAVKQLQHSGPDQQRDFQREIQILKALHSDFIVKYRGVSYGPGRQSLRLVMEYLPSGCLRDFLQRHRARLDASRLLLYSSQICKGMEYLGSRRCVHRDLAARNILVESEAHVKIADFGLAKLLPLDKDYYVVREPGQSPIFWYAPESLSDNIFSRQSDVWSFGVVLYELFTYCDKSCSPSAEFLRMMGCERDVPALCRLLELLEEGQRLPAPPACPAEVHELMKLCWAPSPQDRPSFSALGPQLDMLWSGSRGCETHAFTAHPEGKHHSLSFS
# Description: as §1, §2
# FGFR1 = target: T9, FGFR1 (Homo sapiens, UniProt P11362, C488A/C584S); test: AlphaScreen kinase assay, FGFR1; settings: read-out: IC50, activity toward kinase FGFR
# T9 construct: P1351.pET N6 BI-PTP FGFR A458-E765-X C488A, C584S; made in house; host or cells: E. coli (PTP1B co-expressed)
# B-Raf = target: T10, B-Raf (Homo sapiens, UniProt P15056); test: AlphaScreen kinase assay, B-Raf; settings: read-out: IC50, activity toward kinase B-Raf
# T10 construct: purchased Upstate Biotechnology
# Pyk2 = target: T11, Pyk2 (Homo sapiens, UniProt Q14289); test: AlphaScreen kinase assay, Pyk2; settings: read-out: IC50, activity toward kinase Pyk2
# T11 construct: purchased Upstate Biotechnology
# T11 sequence (Q14289 whole entry): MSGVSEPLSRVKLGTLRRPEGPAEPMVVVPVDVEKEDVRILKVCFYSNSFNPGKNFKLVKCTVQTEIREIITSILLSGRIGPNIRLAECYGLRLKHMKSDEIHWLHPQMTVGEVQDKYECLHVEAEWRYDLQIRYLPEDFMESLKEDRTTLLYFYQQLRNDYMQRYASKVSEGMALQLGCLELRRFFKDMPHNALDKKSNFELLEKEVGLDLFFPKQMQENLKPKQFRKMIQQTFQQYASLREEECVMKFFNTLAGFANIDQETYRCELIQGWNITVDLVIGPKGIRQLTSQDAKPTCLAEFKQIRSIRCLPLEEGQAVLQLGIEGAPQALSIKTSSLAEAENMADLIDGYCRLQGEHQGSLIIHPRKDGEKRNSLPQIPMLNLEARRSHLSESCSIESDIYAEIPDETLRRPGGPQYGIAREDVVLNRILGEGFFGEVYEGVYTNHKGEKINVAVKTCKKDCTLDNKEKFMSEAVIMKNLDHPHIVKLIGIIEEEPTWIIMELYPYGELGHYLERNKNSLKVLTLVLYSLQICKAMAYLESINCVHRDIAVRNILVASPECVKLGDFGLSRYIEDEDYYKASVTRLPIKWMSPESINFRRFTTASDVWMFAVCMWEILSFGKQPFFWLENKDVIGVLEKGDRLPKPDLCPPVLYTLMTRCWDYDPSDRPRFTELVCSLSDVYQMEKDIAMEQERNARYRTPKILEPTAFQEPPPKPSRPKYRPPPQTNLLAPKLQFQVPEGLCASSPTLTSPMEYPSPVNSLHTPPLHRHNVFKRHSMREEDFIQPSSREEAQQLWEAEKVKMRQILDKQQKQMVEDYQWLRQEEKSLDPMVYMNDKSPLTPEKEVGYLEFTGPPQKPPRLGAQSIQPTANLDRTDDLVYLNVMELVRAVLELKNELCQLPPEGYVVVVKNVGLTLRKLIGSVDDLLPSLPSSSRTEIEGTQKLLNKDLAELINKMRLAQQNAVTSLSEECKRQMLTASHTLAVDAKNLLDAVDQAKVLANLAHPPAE
# c-Raf-1 = target: T12, c-Raf-1 (Homo sapiens, UniProt P04049); test: AlphaScreen kinase assay, c-Raf-1; settings: read-out: IC50, activity toward kinase c-Raf-1
# T12 construct: purchased Upstate Biotechnology
IC50 (Kdr) [µM],IC50 (IKK beta) [µM],IC50 (B-Raf V600E) [µM],IC50 (Plk1) [µM],IC50 (Stk6) [µM],IC50 (IGF1R) [µM],IC50 (Kit) [µM],SMILES,other results
≤ 10,,,,≤ 10,≤ 10,≤ 10,Nc1cccc(-c2cnc3[nH]ccc3c2)c1 [Compound P-0136],
≤ 10,≤ 10,,≤ 10,≤ 10,,,c1cc(-c2noc(C3CC3)n2)c2cc[nH]c2n1 [Compound P-0128],

# The remaining lines, values behind:
SMILES,IC50 (Kdr) [µM],IC50 (IKK beta) [µM],IC50 (B-Raf V600E) [µM],IC50 (Plk1) [µM],IC50 (Stk6) [µM],IC50 (IGF1R) [µM],IC50 (Kit) [µM],other results
NC(=O)c1ccc(-c2ccnc3[nH]cc(C(=O)c4ccc(Cl)cc4)c23)cc1 [Compound P-0085],≤ 10,≤ 10,≤ 10,≤ 10,,,,IC50 (Ret): ≤ 10 µM; IC50 (Gsk3β): ≤ 10 µM; IC50 (Btk): ≤ 10 µM
COc1ccc(-c2cnc3[nH]ccc3c2)cc1OC [Compound P-0212],≤ 10,,,,≤ 10,≤ 10,,
CC(C)S(=O)(=O)Nc1ccc(F)c(C(O)c2c[nH]c3ncc(Br)cc23)c1F (centres unmarked) [Compound P-0178],,,≤ 10,≤ 10,,,,IC50 (Jak3): ≤ 10 µM; IC50 (FGFR1): ≤ 10 µM; IC50 (B-Raf): ≤ 10 µM; IC50 (Pyk2): ≤ 10 µM; IC50 (c-Raf-1): ≤ 10 µM
OCc1cccc(-c2cnc3[nH]ccc3c2)c1 [Compound P-0157],≤ 10,,,,≤ 10,≤ 10,≤ 10,
